Data as given in patent publication US10456441B2, “Augmenting the immune response by promoting cell death of immune cells” (The University of Vermont and State Agricultural College, priority 2014, dated 2019).

Columns and labels:
[1] = human trials; cited from earlier work
BMDC = experiment: Cell death of BMDC by TUNEL assay; assay type: cell-based, mice; conditions: GM-CSF-cultured BMDC, zVAD 50 μM + Necrostatin 50 μM
Protocol: (§1) The preparation of bone marrow-derived dendritic cells (BMDC) was done according to the method of Lutz et al. (26) using GM-CSF ([…] PeproTech, Rocky Hill N.J.) or GM-CSF plus IL-4 (10 μg/ml, PeproTech). Cells were used on day 7.
(§2) Cell death was examined by terminal deoxynucleotidyl transferase dUTP nick end labeling (TUNEL). Briefly, cells were stained for expression of cell surface molecules, and then fixed with 1% methanol-free formaldehyde followed by 70% ethanol. After washing, the TUNEL reaction was performed by incubating cells in 50 μl of reaction mix containing 10 units of terminal deoxribosyl transferase (TdT), 2.5 mM cobalt chloride in 1× TdT buffer, and 0.2 pmol/μl of FITC-dUTP (Roche, Indianapolis, Ind.) at 37° C. for 1 hour. The cells were washed twice and fixed in 1% methanol-free formaldehyde. Murine thymocytes were included as a positive control for apoptotic cells. Flow cytometry was performed on an LSRII (BD Biosciences, San Jose, Calif.) calibrated with compensation beads (BD Biosciences). Analysis was performed using FlowJo software (Tree Star, Inc., Ashland, Oreg.).

γδ T cells = experiment: Mixed cultures of γδ T cells and BMDC: γδ T cell activation (IL-17, IFN-γ, CD25); assay type: cell-based, mice
Protocol: Cells were washed three times and then rocked with goat anti-rat conjugated magnetic beads at a 10:1 ratio of beads to cell at 4° C. for 45 min. Magnetic depletion was used to remove bead-bound cells. […] After 2 days, cells were removed from anti-TCR-γδ stimulation, supplied with fresh medium plus IL-2, and returned to culture at a density of 0.3×10^6 cells/ml. Cells were counted daily and supplied with fresh media containing 50 units/ml IL-2. […] In addition, in some experiments freshly isolated splenic γδ T cells were prepared using anti-γδ-coated magnetic beads (Miltenyi Biotec) and magnet purification.
as §1
Day 7 γδ T cells and BMDC were cultured either individually or together at a 1:1 ratio (10^6 cells/ml each). To some cultures the following reagents were added: a sonicate of Borrelia burgdorferi (10 μg/ml), zVAD-fmk (MP Biomedical, Santa Ana Calif.) at the doses indicated, necrostatin (50 μM, R&D Systems, Minneapolis, Minn.), anti-TNF-α (10 μg/ml, Calbiochem, Darnstadt, Germany),, anti-IL-1 Receptor antagonist, Anakinra (200 ng/ml, Amgen, Thousand Oaks, Calif.), anti-IL-12 (10 μg/ml, BioLegend San Diego, Calif.), anti-IL-18 (10 μg/ml, MBL, Woburn Mass.), or rat IgG (10 μg/ml Jackson Immunoresearch, West Grove Pa.). Transwell assays were performed using 1×10^6 γδ T cells in 1 ml of complete medium+IL-2 placed in the lower chamber, with 5×10^5 DC in 100 μl placed in the upper chamber. […]
Cytokine levels of IFN-γ, IL-1β, IL-12p40, IL-12p70, IL-17, and TNF-α were detected using the Bio-Plex, MilliPlex, or Luminex immunoassay (Bio-Rad; Millipore-EMD; R&D Systems, Minneapolis, Minn.) according to the manufacturer's protocol. Briefly, samples were run undiluted or diluted 1:10 in RPMI complete media. 50 μl of the magnetic bead working solution was added to each well, then 50 μl of appropriate samples or standards were then added to wells and incubated at room temperature for 30-120 min at 800 rpm on an IKA MS 3 digital shaker. After three washes with 100 μl Bio-Plex wash buffer, incubation with 25 μl of detection antibody solution was done at room temperature for 30-60 min on the shaker. Following another set of three washes, 50 μl of streptavidin-phycoerythrin (PE) in assay buffer was added to each well and incubated as described for the previous step. After an additional three washes, 125 μl of assay buffer was added. Sample data was analyzed with Bio-Plex Manager software.
The following monoclonal antibodies to murine cell surface molecules were purchased from BioLegend: PE-conjugated anti-CD25, APC-conjugated anti-TCR-γδ, and TNF-α neutralizing antibody. Rat IgG was purchased from Jackson Immunoresearch (West Grove, Pa.). For direct staining, single cell suspensions (1×10^6 total cells per staining condition) were washed with cold (4° C.) PBS containing 1% (w/v) BSA fraction V (Sigma) (PBS/1% BSA), incubated with unconjugated rat IgG (50 μg/ml) for 15 min at 4° C., washed again, and then incubated with the appropriate antibodies in PBS/1% BSA. After washing, the cells were fixed with freshly made 1% (v/v) methanol-free formaldehyde (Ted Pella Inc., Redding, Calif.) in PBS/1% BSA.

c-FLIP, caspase-8 = target: T1, c-FLIP, caspase-8 (Mus musculus, UniProt O89110); experiment: c-FLIP and active caspases in BMDC (biotin-VAD precipitation, immunoblot); assay type: cell-based, mice
T1 construct: endogenous in cells; host or cells: bone marrow-derived dendritic cells (BMDC), day 7, grown in GM-CSF with or without IL-4; whole cell lysates and biotin-VAD precipitates
Protocol: as §1
Day 7 BMDC were lysed in Tris-buffer containing Complete Protease Inhibitor (Roche), 0.2% NP-40 (Roche), and biotin-VAD-fmk (10 μM, MP Biomedicals, Santa Ana, Calif.). Insoluble cell fragments were removed by centrifugation, and the protein concentration of the resulting whole cell lysates was determined by Bradford assay (BioRad, Hercules, Calif.). Whole cell lysates (30 μg per lane) were separated by SDS-PAGE. Precipitation of active caspases was performed by rocking 600 μg of whole cell lysates initially with sepharose 4B beads (Sigma) at 4° C. for 2 hours to remove nonspecific binding of proteins to the beads, followed by overnight rocking incubation with streptavidin-conjugated sepharose beads (Invitrogen) at 4° C. Release of biotin-VAD-fmk-labeled caspases from the streptavidin beads was achieved by heating to 95° C. for 10 min in Laemmli buffer. After gel electrophoresis, proteins were transferred to PVDF membranes (0.2 μm pore size, Bio-Rad), and immunoblots were performed using antibodies (1 μg/ml) against caspase-3, caspase-8 (both Cell Signaling, Danvers, Mass.), caspase-9 (Stressgen, Farmingdale, N.Y.), and RIPK1 (BD Biosciences).

human DC = experiment: Cell death of human DC from peripheral blood monocytes; assay type: cell-based; conditions: addition of IL-4 to GM-CSF culture
Protocol: as §2, with “Human monocytes were obtained as […] cells by magnetic bead purification (Miltenyi Biotech, Auburn, Calif.) from peripheral blood of healthy volunteers. Myeloid DC were prepared by culture of monocytes in AIM V media plus 10% fetal calf serum (HyClone) with 800 U/ml of granulocyte-macrophage colony-stimulating factor (GM-CSF), (BioLegend, San Diego, Calif.) without or with 500 U/ml IL-4 (BioLegend). Cell” for “Cell”

[2] = γδ T cells + BMDC + B. burgdorferi, zVAD+Necrostatin, 20 h
[3] = exogenous TNF-α (2.5 μg/ml) added, absence of Borrelia

T1 sequence (O89110 219-480): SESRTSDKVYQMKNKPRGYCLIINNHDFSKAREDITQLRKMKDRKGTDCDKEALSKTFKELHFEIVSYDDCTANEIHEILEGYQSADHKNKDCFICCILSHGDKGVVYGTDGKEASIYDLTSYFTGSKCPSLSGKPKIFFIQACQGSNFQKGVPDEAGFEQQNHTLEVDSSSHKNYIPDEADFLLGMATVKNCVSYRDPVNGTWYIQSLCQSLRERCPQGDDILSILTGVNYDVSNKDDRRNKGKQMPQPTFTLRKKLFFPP
T1 sequence (O35732 whole entry partner): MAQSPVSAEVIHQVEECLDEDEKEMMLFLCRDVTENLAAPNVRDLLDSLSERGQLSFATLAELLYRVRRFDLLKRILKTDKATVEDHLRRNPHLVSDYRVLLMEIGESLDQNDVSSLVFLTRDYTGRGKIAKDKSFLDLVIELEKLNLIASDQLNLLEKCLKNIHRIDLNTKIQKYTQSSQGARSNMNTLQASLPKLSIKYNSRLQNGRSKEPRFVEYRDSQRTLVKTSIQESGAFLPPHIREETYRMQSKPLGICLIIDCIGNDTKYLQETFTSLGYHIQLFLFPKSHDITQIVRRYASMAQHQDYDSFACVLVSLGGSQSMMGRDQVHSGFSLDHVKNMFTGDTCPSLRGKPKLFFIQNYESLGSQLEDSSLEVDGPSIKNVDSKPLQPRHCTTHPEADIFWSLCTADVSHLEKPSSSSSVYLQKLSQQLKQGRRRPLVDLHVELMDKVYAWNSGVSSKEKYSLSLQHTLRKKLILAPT

## C[C@H](NC(=O)C(=O)Nc1ccccc1C(C)(C)C)C(=O)N[C@@H](CC(=O)O)C(=O)COc1c(F)c(F)cc(F)c1F [IDN-6556]
[1]
  preserving liver function during hepatitis C virus infection: showing promise
  serious side-effects: without exhibiting serious side-effects

## CN1C(=O)C(Cc2c[nH]c3ccccc23)NC1=S (centres unmarked) [Necrostatin]
BMDC
  cell death of zVAD-treated BMDC: rescued them from cell death
γδ T cells; Necrostatin with Borrelia in the absence of zVAD
  production of these cytokines (TNF-α, IL-17, IFN-γ); toxicity check: did not block production
γδ T cells; [2]
  TNF-α production by zVAD-treated BMDC: reversed
  production of IFN-γ by γδ T cells: reversed
  production of IL-17 by γδ T cells: reversed

## IL-4: cytokine added with GM-CSF during generation of BMDC; upregulates c-FLIP
γδ T cells; BMDC grown with GM-CSF+IL-4, absence or presence of zVAD
  ability of BMDC to activate Borrelia-stimulated γδ T cells: much less able to activate
c-FLIP, caspase-8; BMDC grown in GM-CSF+IL-4 vs GM-CSF, 7 days
  level of c-FLIP: considerably increased
c-FLIP, caspase-8; BMDC grown in GM-CSF+IL-4 vs GM-CSF, bVAD precipitates
  level of active caspase-8: increase in the level of active caspase-8
c-FLIP, caspase-8; whole cell lysates, BMDC grown in GM-CSF or GM-CSF+IL-4
  levels of total cellular caspase-8, caspase-9, or caspase-3: no difference
Human DC
  zVAD-induced death of human DC: blocked

## TNF-α
γδ T cells; [3]
  production of IFNγ by γδ T cells: did not augment production
  production of IL-17 by γδ T cells: did not augment production
